Data from patent publication US10029984B2, “Mono- or di-substituted indole derivatives as dengue viral replication inhibitors” (Janssen Pharmaceuticals, Inc., priority 2015, dated 2018).
pEC50: −log10 of the molar value.

Legend:
Type in all cases: cell-based
[1] = tested on: Vero cells; assay: in vitro; details: African green monkey
Procedure, shortened: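 On the same plates after eGFP read-out, resazurin was added and cells incubated a further 5 h at 37 °C, 5% CO2; resorufin fluorescence read with 530 nm excitation. CC50 is the concentration halving resazurin conversion versus cell control; SI = CC50/EC50.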

[2] = tested on: DENV-2 strain 16681; assay: Tetravalent RT-qPCR assay Protocol A, serotype 2; details: Dengue virus, DENV2, 72 h; RT-qPCR serotype 2 16681, Vero cells, day 3
Protocol: (§1) The antiviral activity of the compounds of the invention was tested against DENV-1 strain TC974#666 (NCPV; Table 6), DENV-2 strain 16681 (Table 7), DENV-3 strain H87 (NCPV; Table 8) and DENV-4 strains H241 (NCPV; Table 9) in a RT-qPCR assay. Therefore, Vero cells were infected with either DENV-1, or -2, or -3, or -4 in the presence or absence of test compounds. At day 3 post-infection, the cells were lysed and cell lysates were used to prepare cDNA of both a viral target (the 3′UTR of DENV; table 2) and a cellular reference gene (β-actin, table 2). Subsequently, a duplex real time PCR was performed on a Lightcycler480 instrument. The generated Cp value is inversely proportional to the amount of RNA expression of these targets. Inhibition of DENV replication by a test compound result in a shift of Cp's for the 3′UTR gene. On the other hand, if a test compound is toxic to the cells, a similar effect on β-actin expression will be observed. The comparative ΔΔCp method is used to calculate EC50, which is based on the relative gene expression of the target gene (3′UTR) normalized with the cellular housekeeping gene (β-actin).
(§2) The culture medium consisted of minimal essential medium supplemented with 2% of heat-inactivated fetal calf serum, 0.04% gentamycin (50 mg/mL) and 2 mM of L-glutamine. Vero cells, obtained from ECACC, were suspended in culture medium and 75 μL/well was added in 96-well plates (10000 cells/well), which already contain the antiviral compounds. Typically, these plates contain a 4-fold serial dilution of 9 dilution steps of the test compound at 200 times the final concentration in 100% DMSO (500 nL; final concentration range: 25 μM-0.00038 μM). In addition, each plate contains wells which are assigned as virus controls (containing cells and virus in the absence of compound) and cell controls (containing cells in the absence of virus and compound). Once the cells were added in the plates, the plates were incubated in a fully humidified incubator (37° C., 5% CO2) until the next day. Then, DENV-1 strain TC974#666 at an MOI of 0.6, DENV-2 strain 16681 at an MOI of 0.01, DENV-3 strain H87 at an MOI of 1.0 and DENV-4 strains H241 at an MOI of 0.2 and SG/06K2270DK1/2005 at an MOI of 0.16, were added. Therefore, 25 μL of virus suspension was added to all the wells containing test compound and to the wells assigned as virus control. In parallel, 25 μL of culture medium was added to the cell controls. Next, the plates were incubated for 3 days in a fully humidified incubator (37° C., 5% CO2). After 3 days, the supernatant was removed from the wells and the cells were washed twice with ice-cold PBS (˜100 μL). The cell pellets within the 96-well plates were stored at −80° C. for at least 1 day. Next, RNA was extracted using the Cells-to-CT™ lysis kit, according to the manufacture's guideline (Applied Biosystems). The cell lysates can be stored at −80° C. or immediately used in the reverse transcription step.
(§3) In preparation of the reverse transcription step, mix A (table 3A) was prepared and 7.57 μL/well was dispensed in a 96-well plate. After addition of 5 μL of the cell lysates, a five minute denaturation step at 75° C. was performed (table 3B). Afterwards, 7.43 μL of mix B was added (table 3C) and the reverse transcription step was initiated (table 3D) to generate cDNA.
(§4) Finally, a RT-qPCR mix was prepared, mix C (table 4A), dispensed in 96-well LightCycler qPCR plates to which 3 μL of cDNA was added and the qPCR was performed according to the conditions in table 4B on a LightCycler 480. Using the LightCycler software and an in-house LIMS system, dose response curves for each compound were calculated and the half maximal effective concentration (EC50) and the half maximal cytotoxic concentration (CC50) were determined.

[3] = tested on: DENV-1 strain TC974#666; assay: Tetravalent RT-qPCR assay Protocol A, serotype 1; details: Dengue virus, DENV1, 72 h; RT-qPCR serotype 1 TC974#666, Vero cells, day 3
Protocol: as §1, §2, §3, §4

[4] = tested on: DENV-3 strain H87; assay: Tetravalent RT-qPCR assay Protocol A, serotype 3; details: Dengue virus, DENV3, 72 h; RT-qPCR serotype 3 H87, Vero cells, day 3
Protocol: as §1, §2, §3, §4

[5] = in vitro; details: African green monkey, CC50
Protocol: as §1, §2, §4

[6] = tested on: DENV-4 strains H241; assay: Tetravalent RT-qPCR assay Protocol A, serotype 4; details: Dengue virus, DENV4, 72 h; RT-qPCR serotype 4 H241, Vero cells, day 3
Protocol: as §1, §2, §3, §4

With `COc1cc(NC(C(=O)c2c[nH]c3cc(OC)c(C)cc23)c2ccc(F)cc2OC)cc(S(C)(=O)=O)c1` (single isomer, unassigned) [Enantiomer 10B, 2-(4-fluoro-2-methoxyphenyl)-2-((3-methoxy-5-(methylsulfonyl)phenyl)amino)-1-(6-methoxy-5-methyl-1H-indol-3-yl)ethanone] as the compound, how does the CC50 [1] read?
The CC50 was 4.5 µM.

And the pEC50 [2]?
Its pEC50 is 9.22.

What about the pEC50 [3] of the same compound?
Its pEC50 is 8.35.

What about the pEC50 [4] of the same compound?
Its pEC50 is 7.26.

What about the CC50 at 3 days [5] of the same compound?
Its CC50 at 3 days is 5.14 µM.

And the pEC50 [6]?
The pEC50 was 6.96.
